{"source": "paper PMC10447463", "about": "“Data-mining unveils structure–property–activity correlation of viral infectivity enhancing self-assembling peptides” (Nature Communications, 2023)", "key": {"[1]": {"test": "Zeta-potential measurement", "format": "physicochemical", "settings": "for Zeta-pot. / mV: zeta potential of peptide, Fig S15 source data", "procedure,_shortened": "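Charge on peptide aggregates was assessed by electrophoretic mobility in 1 mM KCl, converted per Smoluchowski. Prior aggregation: 1 mg/mL, pH 7.4 PBS, 1 d, RT.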"}, "[2]": {"test": "Turbidity, derived count rate of scattered light", "format": "physicochemical", "procedure,_shortened": "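One-day room-temperature aggregation at 1 mg/mL in PBS (pH 7.4) preceded measurement; samples then went into 1 mM KCl. Triplicates per sample, two independent experiments averaged.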"}, "[3]": {"system": "HIV-1 infection of TZM-bl cells", "test": "HIV-1 infectivity enhancement assay, β-galactosidase luminescence", "format": "cell-based"}, "[4]": {"settings": "infectivity class (low / medium / high) of each library peptide; main list in c1-c6, same classes repeated in sub-lists of sequences containing the hydrophobicity/charge patterns P+,H0,P+,H0,P0,H0,P0; P+,H0,P0,H0,P0,H0,P0; P+,H0,P0,H0"}, "[5]": {"settings": "infectivity enhancement relative to EF-C (=1); Feb2021 run"}, "[6]": {"settings": "infectivity n-fold relative to virus only; Feb2021 run"}, "[7]": {"settings": "log10 of HIV-1 infection of TZM-bl cells relative to EF-C; Fig S15 source data; asymmetric std dev errors"}, "[8]": {"settings": "log10 of infectivity relative to EF-C; Feb2021 run"}, "[9]": {"settings": "infectivity class (low / medium / high) of the peptide in the sequence-pattern analysis, Fig. S22-A4; class limits not given"}}, "note": "Like-named read-outs stand apart in the source and are kept apart here."}
{"substance": "RVRVTVT", "values": [{"measurement": "Zeta pot. / mV", "setting": "[1]; 1 mg/mL in PBS pH 7.4 from 10 mg/mL DMSO stock, 1 d RT, 60 µL diluted in 600 µL 1 mM KCl, Zetasizer Nano ZS, Smoluchowski, mean of triplicate", "value": -3.713, "unit": "mV"}, {"measurement": "Zeta-Potential / mV", "setting": "[1]; mean, Figure 6C", "value": -3.713, "unit": "mV"}, {"measurement": "Count Rate / kcps", "setting": "[2]; derived count rate of scattered light at 633 nm, 173°, from zeta-potential measurement, 0.1 mg/mL in 1 mM KCl after 1 d at 1 mg/mL in PBS, turbidity / microscopic aggregation, mean of triplicate", "value": 25.33, "unit": "kcps"}, {"measurement": "Log10 Count Rate", "setting": "[2]; log10 of derived count rate of scattered light, Figure 6C", "value": 1.404}, {"measurement": "Log10 Count Rate", "setting": "[2]; logarithm of count rate in kcps", "value": 1.404}, {"measurement": "Inf. rel. EF-C", "setting": "[3]; HIV-1 infection relative to EF-C; Fig 23 plot, panels A and B; mean of 3 values", "value": 0.05962}, {"measurement": "Inf. rel. EF-C", "setting": "[3]; HIV-1 infection relative to EF-C; Fig 23 plot, single data point, replicate 1", "value": 0.04632}, {"measurement": "Inf. rel. EF-C", "setting": "[3]; HIV-1 infection relative to EF-C; Fig 23 plot, single data point, replicate 2", "value": 0.07129}, {"measurement": "Inf. rel. EF-C", "setting": "[3]; HIV-1 infection relative to EF-C; Fig 23 plot, single data point, replicate 3", "value": 0.06124}, {"measurement": "Log10 Infection Rel EF-C", "setting": "[3]; log10 of infection relative to EF-C, Figure 6C", "value": -1.225}, {"measurement": "Inf. rel. EF-C", "setting": "[3]; n-fold infection vs virus only, relative to that of EF-C, 1.3 µM peptide", "value": 0.06}]}
{"substance": "EIEIQINMWQ [VH8]", "values": [{"measurement": "Zeta category ( +1 = if > 4 mV;-1 = if < -4 mV; 0 = -4mV to 4 mV)", "setting": "[1]", "value": "-1 (-1 = if < -4 mV)"}, {"measurement": "Zeta Pot. / mV", "setting": "[1]; mean, Std in separate column", "value": -19.13, "unit": "mV"}, {"measurement": "Zeta-pot. / mV", "setting": "[1]", "value": -19.13, "unit": "mV"}, {"measurement": "Zeta Count Rate / kcps", "setting": "[2]; derived count rate from zeta measurement, mean", "value": 1264, "unit": "kcps"}, {"measurement": "Zeta Count Rate Category", "setting": "[2]; key not given", "value": 1}, {"measurement": "infectivity", "setting": "[3]; [4]", "value": "medium"}, {"measurement": "Rel-to EFC (Feb-2021)", "setting": "[3]; [5]", "value": 0.1315}, {"measurement": "n-fold to virus (Feb2021)", "setting": "[3]; [6]", "value": 5.526}, {"measurement": "Log10 Inf. rel. to EF-C", "setting": "[3]; [7]", "value": -0.881}, {"measurement": "Log10 of Rel to EFC (Feb2021)", "setting": "[3]; [8]", "value": -0.881}]}
{"substance": "KIKIQINMAQ [JR2]", "values": [{"measurement": "Zeta category ( +1 = if > 4 mV;-1 = if < -4 mV; 0 = -4mV to 4 mV)", "setting": "[1]; FigS26", "value": "0 (0 = -4mV to 4 mV)"}, {"measurement": "Zeta-pot. / mV", "setting": "[1]", "value": 3.07, "unit": "mV"}, {"measurement": "infectivity", "setting": "[3]; [4]", "value": "medium"}, {"measurement": "Log10 Inf. rel. to EF-C", "setting": "[3]; [7]", "value": -0.6722}]}
{"substance": "KIKIQIMWNQ [VH15]", "values": [{"measurement": "Zeta category ( +1 = if > 4 mV;-1 = if < -4 mV; 0 = -4mV to 4 mV)", "setting": "[1]; FigS26", "value": "0 (0 = -4mV to 4 mV)"}, {"measurement": "Zeta-pot. / mV", "setting": "[1]", "value": 2.96, "unit": "mV"}, {"measurement": "infectivity", "setting": "[3]; [4]", "value": "medium"}, {"measurement": "Log10 Inf. rel. to EF-C", "setting": "[3]; [7]", "value": -0.2495}]}
{"substance": "KIKIQIRGD [MG6]", "values": [{"measurement": "Zeta category ( +1 = if > 4 mV;-1 = if < -4 mV; 0 = -4mV to 4 mV)", "setting": "[1]; FigS26", "value": "1 (+1 = if > 4 mV)"}, {"measurement": "Zeta-pot. / mV", "setting": "[1]", "value": 6.43, "unit": "mV"}, {"measurement": "infectivity", "setting": "[3]; [4]", "value": "low"}, {"measurement": "infectivity", "setting": "[3]; [9]", "value": "low"}, {"measurement": "Log10 Inf. rel. to EF-C", "setting": "[3]; [7]", "value": -1.678}]}
{"substance": "NMWQKFKFQF [JG11]", "values": [{"measurement": "Zeta category ( +1 = if > 4 mV;-1 = if < -4 mV; 0 = -4mV to 4 mV)", "setting": "[1]; FigS26", "value": "1 (+1 = if > 4 mV)"}, {"measurement": "Zeta-pot. / mV", "setting": "[1]", "value": 9.56, "unit": "mV"}, {"measurement": "infectivity", "setting": "[3]; [4]", "value": "medium"}, {"measurement": "Log10 Inf. rel. to EF-C", "setting": "[3]; [7]", "value": -0.5672}]}
{"substance": "KIKIQIAMWQ [JR4]", "values": [{"measurement": "Zeta category ( +1 = if > 4 mV;-1 = if < -4 mV; 0 = -4mV to 4 mV)", "setting": "[1]; FigS26", "value": "1 (+1 = if > 4 mV)"}, {"measurement": "Zeta-pot. / mV", "setting": "[1]", "value": 11.3, "unit": "mV"}, {"measurement": "infectivity", "setting": "[3]; [4]", "value": "medium"}, {"measurement": "Log10 Inf. rel. to EF-C", "setting": "[3]; [7]", "value": -0.4109}]}
{"substance": "NMWQKAKAQA [JG10]", "values": [{"measurement": "Zeta category ( +1 = if > 4 mV;-1 = if < -4 mV; 0 = -4mV to 4 mV)", "setting": "[1]; FigS26", "value": "-1 (-1 = if < -4 mV)"}, {"measurement": "Zeta-pot. / mV", "setting": "[1]", "value": -5.56, "unit": "mV"}, {"measurement": "infectivity", "setting": "[3]; [4]", "value": "low"}, {"measurement": "Log10 Inf. rel. to EF-C", "setting": "[3]; [7]", "value": -1.376}]}
{"substance": "KFKFQFF [TG6]", "values": [{"measurement": "Zeta category ( +1 = if > 4 mV;-1 = if < -4 mV; 0 = -4mV to 4 mV)", "setting": "[1]", "value": "0 (0 = -4mV to 4 mV)"}, {"measurement": "Zeta-pot. / mV", "setting": "[1]", "value": 6.903, "unit": "mV"}, {"measurement": "Absolute Infectivity / RLU /s (Feb2021)", "setting": "[3]; Feb2021; figures match the 1.3 µM column", "value": 2850, "unit": "RLU /s"}, {"measurement": "n-fold to virus (Feb2021)", "setting": "[3]; Feb2021; infectivity relative to virus only", "value": 5.12}, {"measurement": "Log10 of Rel to EFC (Feb2021)", "setting": "[3]; Feb2021; log10 of infectivity relative to EF-C", "value": -0.9142}, {"measurement": "Rel-to EFC (Feb-2021)", "setting": "[3]; Feb2021; n-fold infectivity relative to EF-C", "value": 0.1218}, {"measurement": "n-fold to virus (Feb2021)", "setting": "[3]; Feb2021 run; infectivity n-fold relative to virus alone", "value": 5.12}, {"measurement": "Log10 of Rel to EFC (Feb2021)", "setting": "[3]; Feb2021 run; log10 of infectivity relative to EF-C", "value": -0.9142}, {"measurement": "Rel-to EFC (Feb-2021)", "setting": "[3]; Feb2021 run; n-fold infectivity relative to EF-C", "value": 0.1218}, {"measurement": "infectivity", "setting": "[3]; [4]", "value": "medium"}, {"measurement": "Rel-to EFC (Feb-2021)", "setting": "[3]; [5]", "value": 0.1218}, {"measurement": "n-fold to virus (Feb2021)", "setting": "[3]; [6]", "value": 5.12}, {"measurement": "Log10 Inf. rel. to EF-C", "setting": "[3]; [7]", "value": -0.9142}, {"measurement": "Log10 of Rel to EFC (Feb2021)", "setting": "[3]; [8]", "value": -0.9142}]}
{"substance": "KIKIQIMQWN [VH16]", "values": [{"measurement": "Zeta category ( +1 = if > 4 mV;-1 = if < -4 mV; 0 = -4mV to 4 mV)", "setting": "[1]; FigS26", "value": "1 (+1 = if > 4 mV)"}, {"measurement": "Zeta-pot. / mV", "setting": "[1]", "value": 9.44, "unit": "mV"}, {"measurement": "infectivity", "setting": "[3]; [9]", "value": "high"}, {"measurement": "Log10 Inf. rel. to EF-C", "setting": "[3]; [7]", "value": -0.1454}]}
{"substance": "NMWQKIKIQI [JG9]", "values": [{"measurement": "Zeta category ( +1 = if > 4 mV;-1 = if < -4 mV; 0 = -4mV to 4 mV)", "setting": "[1]; FigS26", "value": "1 (+1 = if > 4 mV)"}, {"measurement": "Zeta-pot. / mV", "setting": "[1]", "value": 8.26, "unit": "mV"}, {"measurement": "infectivity", "setting": "[3]; [4]", "value": "medium"}, {"measurement": "Log10 Inf. rel. to EF-C", "setting": "[3]; [7]", "value": -0.6877}]}
{"substance": "KIKIQINMWA [JR1]", "values": [{"measurement": "Zeta category ( +1 = if > 4 mV;-1 = if < -4 mV; 0 = -4mV to 4 mV)", "setting": "[1]; FigS26", "value": "1 (+1 = if > 4 mV)"}, {"measurement": "Zeta-pot. / mV", "setting": "[1]", "value": 14.7, "unit": "mV"}, {"measurement": "infectivity", "setting": "[3]; [4]", "value": "medium"}, {"measurement": "Log10 Inf. rel. to EF-C", "setting": "[3]; [7]", "value": -0.1642}]}
